Data set [1] can be described thus: Measurement of pH and osmolality (Example 2). The data set is classed as physicochemical. To be noted: FIG. 8 panels A-C. Here is the method: After 24 hours of gelation at 37° C., each hydrogel was pressed and filtered in order to recover entrapped solution. The pH of the extracted liquids was measured at room temperature using a pH meter (UltraBasic pH-meter, Denver Instrument). The impact of GA concentration of gels prepared with culture medium (as detailed in Section 2.2.4) on the final osmolality of hydrogels was measured using an osmometer (Advanced® Micro Osmometer, Model 3300, Advanced Instruments Inc.).

The conditions of data set [2]: BGP pKa,2 at 25° C.; cited from earlier work.
The test system of data set [3] is endothelial-derived cells (EA.hy 926). To be noted: SHC 0.1M; cited from earlier work.
Data set [4] in a line: Doxycycline denaturation on mixing, spectrometry. The data set is classed as physicochemical. An excerpt: Addition of an anti-oxidant was however required for long term stability.

The structures appear in SMILES notation.

As to `O.O.O.O.O.O=P([O-])([O-])OC(CO)CO.[Na+].[Na+]` [BGP, β-Glycerol phosphate disodium salt pentahydrate, reference compound], the “slope of osmolality versus gelling agent concentration” value in data set [1] is on record as 1789. Further, in data set [2], the pKa (commonly the negative logarithm of the acid dissociation constant) is 6.65.
With `O=C([O-])O.[Na+]` [SHC, Sodium hydrogen carbonate], the “slope of osmolality versus gelling agent concentration” value in data set [1] came to 1475. Moreover, the “damage on endothelial-derived cells” value in data set [3] is reported as “no damage”. The pKa in data set [2] is on record as 6.35.
As for `C[C@H]1c2cccc(O)c2C(=O)C2=C(O)[C@]3(O)C(=O)C(C(N)=O)=C(O)[C@@H](N(C)C)[C@@H]3[C@@H](O)[C@@H]21` [doxycycline], the “drug stability on direct addition in the CH or GA solution” value in data set [4] is listed as “drug denaturation”. Besides, the “drug stability on addition in the CH-GA solution” value in data set [4] (room temperature) is listed as “avoid drug denaturation”.

The values are drawn from patent publication US20170360912A1, “CHITOSAN-BASED HYDROGEL AND APPLICATIONS THEREOF” (priority 2014, published 2017).
